Test results taken from US11453660B2, “Androgen receptor and glucocorticoid receptor modulators” (ONCOSTELLAE, S.L., priority 2017, dated 2022).
Changes are numbered by the printed parent chain.

Columns and labels:
Rat Androgen Receptor = molecular target: T1, Rat Androgen Receptor (Rattus norvegicus, UniProt P15207); test: Rat Androgen Receptor Binding (polarscreen AR competitor assay, fluorescence polarization); conditions: displacement of Fluormone AL Green, 4 hours at RT, read-out: AR rat-fluorimetric
T1 construct: purchased Life Technologies A15880
T1 sequence (P15207 646-902 limits assumed): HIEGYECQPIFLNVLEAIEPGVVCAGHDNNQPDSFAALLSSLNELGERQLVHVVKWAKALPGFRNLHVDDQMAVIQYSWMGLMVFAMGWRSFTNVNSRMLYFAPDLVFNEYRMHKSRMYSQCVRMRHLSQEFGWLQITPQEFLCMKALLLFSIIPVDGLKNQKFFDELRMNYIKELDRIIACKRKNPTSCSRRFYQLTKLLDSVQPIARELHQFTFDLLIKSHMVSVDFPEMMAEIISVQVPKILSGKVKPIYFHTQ
Method in brief: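 Fluorescence-polarization competition of Fluormone AL Green binding to rat androgen receptor; compounds screened in duplicate at 1 and 10 μM, 4 h at RT, read at λexc 485/λem 535 nm. IC50 from 1:10 dilution series, 10 μM to 0.1 nM, in 1× buffer.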

human androgen receptor = molecular target: T2, human androgen receptor (Homo sapiens, UniProt P10275, T878A); test: Human Androgen Receptor Binding (radioligand binding, LnCap prostate cancer cell line); conditions: LnCap cells, displacement of [^3H]-methyltrienolone, 2 hours at 37° C.; read-out: AR LNCaP
T2 construct: endogenously expressed human androgen receptor using the LnCap prostate cancer cell line; endogenous in cells; host or cells: LNCaP prostate cancer cell line (whole cells)
T2 sequence (P10275 1-920 T878A): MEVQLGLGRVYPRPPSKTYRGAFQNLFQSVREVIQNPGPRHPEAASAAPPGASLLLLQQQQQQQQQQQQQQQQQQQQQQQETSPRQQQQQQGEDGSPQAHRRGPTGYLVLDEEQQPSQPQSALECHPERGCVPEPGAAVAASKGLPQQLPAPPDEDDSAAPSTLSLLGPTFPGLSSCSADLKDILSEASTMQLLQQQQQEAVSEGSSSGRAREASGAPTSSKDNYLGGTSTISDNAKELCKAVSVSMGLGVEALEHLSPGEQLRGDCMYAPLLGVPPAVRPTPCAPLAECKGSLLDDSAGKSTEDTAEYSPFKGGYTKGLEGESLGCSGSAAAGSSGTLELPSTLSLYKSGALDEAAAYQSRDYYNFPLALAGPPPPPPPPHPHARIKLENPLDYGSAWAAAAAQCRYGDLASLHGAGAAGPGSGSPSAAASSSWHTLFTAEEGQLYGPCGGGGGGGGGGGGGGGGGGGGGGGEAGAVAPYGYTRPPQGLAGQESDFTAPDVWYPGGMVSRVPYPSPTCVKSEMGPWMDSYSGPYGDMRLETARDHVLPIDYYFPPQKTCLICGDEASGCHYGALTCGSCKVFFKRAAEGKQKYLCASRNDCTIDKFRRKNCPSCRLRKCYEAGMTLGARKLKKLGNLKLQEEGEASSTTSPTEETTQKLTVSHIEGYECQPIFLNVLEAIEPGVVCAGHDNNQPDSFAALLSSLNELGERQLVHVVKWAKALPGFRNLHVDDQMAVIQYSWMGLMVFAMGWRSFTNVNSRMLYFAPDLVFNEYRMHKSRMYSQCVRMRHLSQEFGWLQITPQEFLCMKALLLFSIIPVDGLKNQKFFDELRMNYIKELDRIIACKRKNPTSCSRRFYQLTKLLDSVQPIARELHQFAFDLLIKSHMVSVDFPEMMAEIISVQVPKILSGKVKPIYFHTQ
Method in brief: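 Whole-cell displacement of [3H]-methyltrienolone from endogenous AR (T878A) in LnCap cells, in RPMI with 0.1% BSA and triamcinolone acetonide. Compounds 10 μM to 0.1 nM in 1:10 steps, 2 h at 37 °C; cells washed, SDS-lysed, bound radioactivity by scintillation counting for IC50.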

AR-Receptor = molecular target: T3, AR-Receptor (Homo sapiens, UniProt P10275); test: Functional Assay AR-Receptor (MDA-MB-453 cells, luciferase); assay type: cell-based; conditions: antagonist effect in the presence of DHT 1 nM, 24 h, luciferase luminescence, read-out: AR antag KB
T3 sequence (P10275 1-920 Q868H): T2 sequence (P10275 1-920 T878A) with Q868H, A878T
Procedure: Functional Assay AR-Receptor
MDA-MB-453 cells were cultured in DMEM (ATCC, ref 30-2002), 10% FBS, 1% penicillin, 1% streptomycin, 75 μg/ml gentamycin.
The day before performing assay, the cells were trypsinized and seeded in a 384-well plate (Greiner, ref 781098) (8000 cells/well) in 50 μl of complete culture medium. Cells were stores at 37° C. in a 5% CO2 atmosphere overnight.
The medium was replaced by 50 μl complete growth medium with 0.1% FBS. Compounds were dispensed with Echo 550 (Labcyte) and incubated for 24 h at 37° C. in a 5% CO2 atmosphere. Antagonist effect was measured in the presence of DHT 1 nM.
After incubation, assay medium removed and 20 μl of 1× Promega lysis buffer were added to each well. The plate was incubated 15 minutes at RT and quick-frozen to −80° C. and the thaw to room temperature. 50 μl of luciferase substrate (E4550, Promega) were added to each well and luminescence (integration time 1000 msec) was read in an EnSpire multilabel reader (Perkin Elmer).

| SMILES | IC50 (Rat Androgen Receptor) | IC50 (human androgen receptor) | Kb (AR-Receptor) |
| --- | --- | --- | --- |
| CC(=O)C1=C(C)NC(C)=C(C(=O)OCc2ccncc2)C1c1csc2ccccc12 (stereo not drawn) [Example B12, Pyridin-4-ylmethyl 5-acetyl-4-(benzo[b]thiophen-3-yl)-2,6-dimethyl-1,4-dihydropyridine-3-carboxylate] | ≥ 1000 nM | ≥ 1000 nM | < 100 nM |
| CC(=O)C1=C(C)NC(C)=C(C(=O)OCC2CCCCC2)C1c1csc2ccccc12 (stereo not drawn) [Example B21, Cyclohexylmethyl 5-acetyl-4-(benzo[b]thiophen-3-yl)-2,6-dimethyl-1,4-dihydropyridine-3-carboxylate] | 100 to 1000 nM | ≥ 1000 nM | 100 to 1000 nM |
